Here are results for four molecules from ChEMBL document CHEMBL5052845 (2021).

Molecules are shown by their SMILES.

Format in all cases: ADME, Microsome
Data set [1] can be described thus: Half-life in human liver microsomes at 1 uM incubated for 60 mins followed by NADPH generating system addition and measured by LC-MS/MS analysis. A general note: Liver microsomes are vesicles of endoplasmic reticulum, rich in cytochrome P450 enzymes.
Data set [2] can be described thus: Half-life in mouse liver microsomes at 1 uM incubated for 60 mins followed by NADPH generating system addition and measured by LC-MS/MS analysis.
A short description of data set [3]: Clearance in human liver microsomes at 1 uM incubated for 60 mins followed by NADPH generating system addition and measured by LC-MS/MS analysis. The conditions noted are these: read-out: CLH.
The nature of data set [4]: Clearance in mouse liver microsomes at 1 uM incubated for 60 mins followed by NADPH generating system addition and measured by LC-MS/MS analysis. The conditions noted are these: read-out: CLH.
Data set [5] in a line: Metabolic stability in mouse liver microsomes at 1 uM assessed as compound remaining incubated for 60 mins followed by NADPH generating system addition and measured by LC-MS/MS analysis. As to conditions: read-out: Stability.

Turning to `CCC[C@H]1C[C@@H](NC(=O)c2ccc(C(F)(F)F)[nH]c2=O)c2cc(C)ccc2N1`, the half-life at 1 µM in data set [1] is 1.51 h; in data set [2], 1.9 h. The results for the microsomal CLint at 1 µM in data set [3] and in data set [4] were 15.3 µL/min/mg and 12.1 µL/min/mg, respectively.

Take `CCC[C@H]1Oc2ccc(C)cc2[C@@H]1NC(=O)c1ccc(C(F)(F)F)[nH]c1=O`: the results for the half-life at 1 µM in data set [1] and in data set [2] were 0.652 h and 0.56 h, respectively. In addition, the microsomal CLint at 1 µM amounted to 35.4 µL/min/mg in data set [3] and 41.2 µL/min/mg in data set [4].

For `CCC[C@@H]1C[C@@H](NC(=O)c2ccc(C(F)(F)F)[nH]c2=O)c2cc(C)ccc2N1`, the half-life at 1 µM in data set [1] came out at 1.37 h; in data set [2] it was 1.2 h. Also, the results for the microsomal CLint at 1 µM in data set [3] and in data set [4] were 17 µL/min/mg and 19.2 µL/min/mg, respectively.

For `Cc1ccc2c(c1)[C@H](O)CC[C@H]2NC(=O)c1ccc(C(F)(F)F)[nH]c1=O`, the remaining at 1 h, 1 µM in data set [5] came to 105%.

Broadly, the half-life is the time needed for the level to fall by half in the phase considered.
